Laboratory results: patent US12358948B2, “Neurotensinergic agonists and methods of using same preventing or treating pain” (priority 2019, dated 2025)
Like-named read-outs stand apart in the source and are kept apart here. Where a SMILES comes first, the peptide text is derived from it. Bridges are numbered along the chain shown (N, C = ends). [ ]: non-standard residue; d: D form. Ala(9-anthryl) = N[C@@H](Cc1c2ccccc2cc2ccccc12)C(=O)O; Ala(E-styryl) = N[C@@H](C/C=C/c1ccccc1)C(=O)O; Bpa = N[C@@H](Cc1ccc(C(=O)c2ccccc2)cc1)C(=O)O; Bip = N[C@@H](Cc1ccc(-c2ccccc2)cc1)C(=O)O; Dip = N[C@H](C(=O)O)C(c1ccccc1)c1ccccc1; Ala(cPent) = N[C@@H](CC1CCCC1)C(=O)O; dTic = O=C(O)[C@H]1Cc2ccccc2CN1; 2Thi = N[C@@H](Cc1cccs1)C(=O)O; Cit = NC(=O)NCCC[C@H](N)C(=O)O; AllylGly = C=CC[C@H](N)C(=O)O; Aic = NC1(C(=O)O)Cc2ccccc2C1; Cba = N[C@@H](CC1CCC1)C(=O)O; Pen = CC(C)(S)[C@H](N)C(=O)O; hLys = NCCCCC[C@H](N)C(=O)O

What was measured:
hNTS1 receptor = target: T1, hNTS1 receptor (Homo sapiens, UniProt P30989); assay: Competitive radioligand binding assay on the hNTS1 receptor; details: membranes of CHO-K1 cells expressing hNTS1
T1 construct: membranes prepared from them
T1 sequence (P30989 whole entry): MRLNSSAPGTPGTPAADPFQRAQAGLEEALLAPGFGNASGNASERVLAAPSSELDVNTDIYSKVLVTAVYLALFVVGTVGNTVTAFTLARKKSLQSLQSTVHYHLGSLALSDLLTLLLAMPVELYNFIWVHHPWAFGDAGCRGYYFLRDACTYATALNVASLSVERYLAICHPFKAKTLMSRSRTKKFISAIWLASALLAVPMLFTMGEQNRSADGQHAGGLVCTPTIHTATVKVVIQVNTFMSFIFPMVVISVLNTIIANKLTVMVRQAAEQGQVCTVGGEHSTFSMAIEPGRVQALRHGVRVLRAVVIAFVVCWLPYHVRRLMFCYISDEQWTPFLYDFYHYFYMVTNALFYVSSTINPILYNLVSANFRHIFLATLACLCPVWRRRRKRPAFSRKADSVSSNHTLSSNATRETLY
How it was run: (§1)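 Membranes from CHO-K1 cells expressing hNTS1 (15 µg, […] ¹²⁵I-[Tyr³]-NT) or 1321N1 cells expressing hNTS2 (50 µg, […] radioligand) were incubated with analogues at 10⁻¹¹–10⁻⁴ M for 60 min at 25 °C in Tris-HCl pH 7.5/0.2% BSA. Filtration and γ-counting followed; nonspecific binding was defined with 10⁻⁵ M NT(8-13), and IC50 was obtained by one-site fit.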

hNTS2 receptor = target: T2, hNTS2 receptor (Homo sapiens, UniProt O95665); assay: Competitive radioligand binding assay on the hNTS2 receptor; details: for IC50: membranes of 1321N1 cells expressing hNTS2; for Selectivity: ratio IC50 for NTS1 : IC50 for NTS2
T2 construct: membranes prepared from them
T2 sequence (O95665 whole entry): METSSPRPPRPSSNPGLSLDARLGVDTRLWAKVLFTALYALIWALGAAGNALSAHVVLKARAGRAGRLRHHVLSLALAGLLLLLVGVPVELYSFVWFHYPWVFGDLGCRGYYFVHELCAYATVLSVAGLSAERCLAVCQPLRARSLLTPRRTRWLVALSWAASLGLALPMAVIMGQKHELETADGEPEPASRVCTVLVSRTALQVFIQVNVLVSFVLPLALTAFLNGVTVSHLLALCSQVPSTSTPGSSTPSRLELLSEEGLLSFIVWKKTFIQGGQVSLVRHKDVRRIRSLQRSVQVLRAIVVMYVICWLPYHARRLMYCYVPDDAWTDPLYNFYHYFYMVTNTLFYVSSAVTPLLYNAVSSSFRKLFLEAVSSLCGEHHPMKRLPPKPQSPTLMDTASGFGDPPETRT
How it was run: as §1

[1] = displacement of 125I-[Tyr3]-NT, read-out: IC50 NTS1
[2] = displacement of 125I-[Tyr3]-NT, read-out: IC50 NTS2 (converted)
[3] = IC50 NTS1, displacement of 125I-[Tyr3]-NT
[4] = IC50 NTS2, displacement of 125I-[Tyr3]-NT

IC50 (hNTS1 receptor; [1]) [µM]	IC50 (hNTS2 receptor; [2]) [µM]	Selectivity (hNTS2 receptor)	SMILES	IC50 (hNTS1 receptor; [3]) [µM]	IC50 (hNTS2 receptor; [4]) [µM]
> 100	0.0377	2653	CC(C)C[C@H](NC(=O)[C@H](Cc1ccc(Br)cc1)NC(=O)C1(C)CCCC=CCCC(=O)N[C@@H](CCCCN)C(=O)N[C@@H](CCCCN)C(=O)N1)C(=O)O (stereo partly drawn) [compound 136, c[PentenoylKKG(alpha-Me-(4-pentenyl))]F(4-bromo)L]	–	–
> 100	0.0096	10428	CC1(C(=O)N[C@@H](Cc2ccc(Br)cc2)C(=O)N[C@@H](CC2CCCC2)C(=O)O)CCCC=CCCC(=O)N[C@@H](CCCCN)C(=O)N[C@@H](CCCCN)C(=O)N1 (stereo partly drawn) [compound 137, c[K(Pentenoyl)KG(alpha-Me-(4-pentenyl))]F(4-bromo)A (cyclopentyl)]	–	–
> 100	0.582	172	CC(C)C[C@H](NC(=O)[C@H](C)NC(=O)[C@@H]1CC=CC[C@H](N)C(=O)N[C@@H](CCCCN)C(=O)N[C@@H](CCCCN)C(=O)N1)C(=O)O [compound 138, c[G(All)KKG(All)]AL] (H-[AllylGly]KK[AllylGly]AL-OH; staple 1-4)	–	–
> 100	0.0485	2061	CC(C)C[C@H](NC(=O)[C@H](Cc1ccc(-c2ccccc2)cc1)NC(=O)[C@@H]1CC=CC[C@H](N)C(=O)N[C@@H](CCCCN)C(=O)N[C@@H](CCCCN)C(=O)N1)C(=O)O [compound 139, c[G(All)KKG(All)]A (biphenyl)L] (H-[AllylGly]KK[AllylGly][Bip]L-OH; staple 1-4)	–	–
> 100	0.631	158	CC(C)C[C@H](NC(=O)[C@@H](NC(=O)[C@@H]1CC=CC[C@H](N)C(=O)N[C@@H](CCCCN)C(=O)N[C@@H](CCCCN)C(=O)N1)C(c1ccccc1)c1ccccc1)C(=O)O [compound 140, c[G(All)KKG(All)]A (diphenyl)L] (H-[AllylGly]KK[AllylGly][Dip]L-OH; staple 1-4)	–	–
> 100	0.204	490	CC(C)C[C@H](NC(=O)[C@H](CC1CCCC1)NC(=O)[C@@H]1CC=CC[C@H](N)C(=O)N[C@@H](CCCCN)C(=O)N[C@@H](CCCCN)C(=O)N1)C(=O)O [compound 142, c[G(All)KKG(All)]A (cyclopentyl)L] (H-[AllylGly]KK[AllylGly][Ala(cPent)]L-OH; staple 1-4)	–	–
> 100	0.276	362	CC(C)C[C@H](NC(=O)[C@H](CC1CCC1)NC(=O)[C@@H]1CC=CC[C@H](N)C(=O)N[C@@H](CCCCN)C(=O)N[C@@H](CCCCN)C(=O)N1)C(=O)O [compound 143, c[G(All)KKG(All)]A (cyclobutyl)L] (H-[AllylGly]KK[AllylGly][Cba]L-OH; staple 1-4)	–	–
> 100	0.698	143	CC(C)C[C@H](NC(=O)[C@H](Cc1ccc(O)cc1)NC(=O)[C@@H]1CC=CC[C@H](N)C(=O)N[C@@H](CCCCN)C(=O)N[C@@H](CCCNC(N)=O)C(=O)N1)C(=O)O [compound 146, c[G(All)KcitrullineG(All)]YL] (H-[AllylGly]K[Cit][AllylGly]YL-OH; staple 1-4)	–	–
> 100	0.6	167	CC(C)C[C@H](NC(=O)[C@H](Cc1ccc(O)cc1)NC(=O)[C@@H]1CC=CC[C@H](N)C(=O)N[C@@H](CCCNC(N)=O)C(=O)N[C@@H](CCCCN)C(=O)N1)C(=O)O [compound 147, c[G(All)citrullineKG(All)]YL] (H-[AllylGly][Cit]K[AllylGly]YL-OH; staple 1-4)	–	–
> 100	7.9	13	CC(C)C[C@H](NC(=O)[C@H](Cc1ccc(O)cc1)NC(=O)[C@@H]1CC=CC[C@H](N)C(=O)N[C@@H](CCCNC(N)=O)C(=O)N[C@@H](CCCNC(N)=O)C(=O)N1)C(=O)O [compound 148, c[G(All)citrulline-citrullineG (All)]YL] (H-[AllylGly][Cit][Cit][AllylGly]YL-OH; staple 1-4)	–	–
> 100	0.214	468	CC(C)C[C@H](NC(=O)[C@H](Cc1ccc(O)cc1)NC(=O)[C@@H]1CC=CC[C@H](N)C(=O)N[C@@H](CCCCN)C(=O)N[C@@H](CCCCCN)C(=O)N1)C(=O)O [compound 149, c[G(All)KhomolysineG(All)]YL] (H-[AllylGly]K[hLys][AllylGly]YL-OH; staple 1-4)	–	–
> 100	0.187	533	CC(C)C[C@H](NC(=O)[C@H](Cc1ccc(O)cc1)NC(=O)[C@@H]1CC=CC[C@H](N)C(=O)N[C@@H](CCCCCN)C(=O)N[C@@H](CCCCN)C(=O)N1)C(=O)O [compound 150, c[G(All)homolysineKG(All)]YL] (H-[AllylGly][hLys]K[AllylGly]YL-OH; staple 1-4)	–	–
> 100	0.104	962	CC(C)C[C@H](NC(=O)[C@H](Cc1ccc(O)cc1)NC(=O)[C@@H]1CC=CC[C@H](N)C(=O)N[C@@H](CCCCCN)C(=O)N[C@@H](CCCCCN)C(=O)N1)C(=O)O [compound 151, c[G(All)K(homo)K (homo)G(All)]YL] (H-[AllylGly][hLys][hLys][AllylGly]YL-OH; staple 1-4)	–	–
> 1000	1.4	7	CC(C)C[C@H](NC(=O)[C@H](Cc1ccc(O)cc1)NC(=O)[C@@H]1CSSC[C@H](N)C(=O)N[C@@H](CCCCN)C(=O)N[C@@H](CCCCN)C(=O)N1)C(=O)O [compound 152, c[CKKC]YL] (H-CKKCYL-OH; disulfide 1-4)	–	–
> 100	0.0348	2871	CC(C)C[C@H](NC(=O)[C@H](Cc1ccc(O)cc1)NC(=O)[C@H]1NC(=O)[C@H](CCCCN)NC(=O)[C@H](CCCCN)NC(=O)[C@@H](N)CSSC1(C)C)C(=O)O [compound 153, c[CKKPen]YL] (H-CKK[Pen]YL-OH; disulfide 1-4)	–	–
> 100	1.2	81	CC(C)C[C@H](NC(=O)[C@H](Cc1ccc(O)cc1)NC(=O)[C@@H]1CSSC(C)(C)[C@H](N)C(=O)N[C@@H](CCCCN)C(=O)N[C@@H](CCCCN)C(=O)N1)C(=O)O [compound 154, c[PenKKC]YL] (H-[Pen]KKCYL-OH; disulfide 1-4)	–	–
> 100	0.318	315	CC(C)C[C@H](NC(=O)[C@H](Cc1ccc(O)cc1)NC(=O)[C@H]1NC(=O)[C@H](CCCCN)NC(=O)[C@H](CCCCN)NC(=O)[C@@H](N)C(C)(C)SSC1(C)C)C(=O)O [compound 155, c[(Pen)KK(Pen)]YL] (H-[Pen]KK[Pen]YL-OH; disulfide 1-4)	–	–
> 100	0.0066	15244	CC(C)C[C@H](NC(=O)[C@H](Cc1ccc(O)cc1)NC(=O)[C@@H]1CC=CC[C@H](NC(=O)[C@@H](N)CCCCN)C(=O)N[C@@H](CCCCN)C(=O)N[C@@H](CCCCN)C(=O)N1)C(=O)O [compound 156, Kc[G(All)KKG(All)]YL] (H-K[AllylGly]KK[AllylGly]YL-OH; staple 2-5)	–	–
> 100	0.09	1112	CC(C)C[C@H](NC(=O)[C@H](Cc1cccs1)NC(=O)[C@@H]1CC=CC[C@H](N)C(=O)N[C@@H](CCCCN)C(=O)N[C@@H](CCCCN)C(=O)N1)C(=O)O [compound 159, c[G(All)KKG(All)]A(2-thienyl)L] (H-[AllylGly]KK[AllylGly][2Thi]L-OH; staple 1-4)	–	–
> 100	0.131	766	CC(C)C[C@H](NC(=O)[C@H](C/C=C/c1ccccc1)NC(=O)[C@@H]1CC=CC[C@H](N)C(=O)N[C@@H](CCCCN)C(=O)N[C@@H](CCCCN)C(=O)N1)C(=O)O [compound 161, c[G(All)KKG(All)]A(styryl) L] (H-[AllylGly]KK[AllylGly][Ala(E-styryl)]L-OH; staple 1-4)	–	–
> 100	10	10	CC(C)C[C@H](NC(=O)[C@H]1Cc2ccccc2CN1C(=O)[C@@H]1CC=CC[C@H](N)C(=O)N[C@@H](CCCCN)C(=O)N[C@@H](CCCCN)C(=O)N1)C(=O)O [compound 163, c[G(All)KKG(All)]G(Tic)L] (H-[AllylGly]KK[AllylGly][dTic]L-OH; staple 1-4)	–	–
> 100	10	10	CC(C)C[C@H](NC(=O)C1(NC(=O)[C@@H]2CC=CC[C@H](N)C(=O)N[C@@H](CCCCN)C(=O)N[C@@H](CCCCN)C(=O)N2)Cc2ccccc2C1)C(=O)O [compound 164, c[G(All)KKG(All)]G(indanyl)L] (H-[AllylGly]KK[AllylGly][Aic]L-OH; staple 1-4)	–	–

SMILES	IC50 (hNTS1 receptor; [1]) [µM]	IC50 (hNTS2 receptor; [2]) [µM]	Selectivity (hNTS2 receptor)	IC50 (hNTS1 receptor; [3]) [µM]	IC50 (hNTS2 receptor; [4]) [µM]
CC(C)C[C@H](NC(=O)[C@H](Cc1ccc(C(=O)c2ccccc2)cc1)NC(=O)[C@@H]1CC=CC[C@H](N)C(=O)N[C@@H](CCCCN)C(=O)N[C@@H](CCCCN)C(=O)N1)C(=O)O [compound 160, c[G(All)KKG(All)]F (benzoyl)L] (H-[AllylGly]KK[AllylGly][Bpa]L-OH; staple 1-4)	–	–	2	> 100	0.115
CC(C)C[C@H](NC(=O)[C@H](Cc1c2ccccc2cc2ccccc12)NC(=O)[C@@H]1CC=CC[C@H](N)C(=O)N[C@@H](CCCCN)C(=O)N[C@@H](CCCCN)C(=O)N1)C(=O)O [compound 162, c[G(All)KKG(All)]A(anthryl-) L] (H-[AllylGly]KK[AllylGly][Ala(9-anthryl)]L-OH; staple 1-4)	–	–	5249	> 100	0.0191
